Laboratory results reported in patent publication US12509429B2, “Hydroxybenzamide derivatives and methods of use in treating diabetes” (THE BOARD OF REGENTS OF THE UNIVERSITY OF OKLAHOMA, priority 2022, dated 2025).
pEC50: −log10 of the molar value. “Also recorded” adds a separate entry of the source.

Legend:
Format in all cases: cell-based, rat
[1] = tested on: PERK activation (ATF4 mRNA); assay: qRT-PCR of ATF4 mRNA (Tm-induced PERK activation) in INS-1 cells; conditions: compound 5 μM, Tm 0.5 μg/ml, 4 h and 8 h, normalized to cyclophilin A, listed as WO3i
Protocol: ATF4 mRNA levels by qRT-PCR in INS-1 cells treated for 4 h (A) and 8 h (B) with WO3i at 5 μM in the presence or absence of Tm (0.5 μg/ml). Data are presented as the fold change after normalized to cyclophilin A mRNA.
(§1) Total RNA was extracted from INS-1 cells using TRIzol reagent (Invitrogen, Carlsbad, CA) according to the manufacturer's protocol. 2 μg of total RNA was reverse transcribed using Superscript IV kit (Invitrogen). Real-time PCR was performed with a CFX96 Real-Time PCR detection system (Bio-Rad, CA) using SYBR Select Master Mix (Applied Biosystems, CA).
(§2) Relative mRNA levels were normalized against Cyclophilin A and were determined by ΔΔCt calculated from the difference in ΔCt values between the target gene and Cyclophilin A with and without treatment, based on comparative CT (cycle threshold) method.

INS-1 cells = assay: Cell viability assay: protection of INS-1 cells from tunicamycin (Tm)-induced loss of viability (CellTiter-Glo, intracellular ATP); conditions: Rattus norvegicus, INS1
Protocol: INS-1 cells were resuspended in RPMI 1640 medium containing 10% FBS and seeded at 5×10^3 cells/well in a 384-well plate. After overnight 24 h incubation, compounds were added to the wells at the indicated concentration using a pin-transfer robot (PerkinElmer). Tm in RPMI 1640 medium containing 10% FBS was then added at a final concentration of 0.15 μg/mL. After 72 h, the medium was removed and 20 μL of CellTiter-Glo reagent (Promega) was added. Luminescence was measured 10 min later using a Synergy Neo2 plate reader (Biotek).
Hydroxy benzamide (HBA) derivatives were synthesized based on various scaffolds and evaluated for their viability of rat INS-1 β cells in the presence of tunicamycin (Tm), a potent ER stress inducer that inhibits N-linked glycosylation of proteins. The maximum activities and the concentrations that reach half-maximal activity (EC50) of the compounds were evaluated by the degree of increase in viability of INS-1 cells co-treated with the compounds in the presence of Tm compared with Tm treatment alone.

INS-1 β cells [2] = assay: Western blotting of cleaved caspase-3 and PARP (Tm-induced apoptosis); conditions: INS-1 cells, Tm 0.3 μg/ml, 24 h, co-treatment at 1 and 5 μM, Western blot
Protocol: INS-1 cells were treated with or without Tm (0.3 μg/ml) in the presence of WO3i at indicated concentrations or DMSO for indicated times. Cleaved caspase-3 and PARP were determined by Western blotting. GADPH was used as a loading control. The data shown are representative of 3 independent experiments.
INS-1 cells cultured in 60-mm dishes were washed with PBS and lysed with lysis buffer (Cell Signaling Technology, Danvers, MA) containing protease and phosphatase inhibitors (Thermo). Aliquots of 20 μg total protein were separated on 10% SDS-PAGE gels (Life Technologies) and transferred to PVDF membranes (Life Technologies). The membranes were probed with primary antibodies followed by the appropriate HRP-conjugated secondary antibodies. Blots were then developed using Pierce ECL Western Blotting Substrate (cat no 32106). The primary antibodies and dilutions used were: cleaved caspase 3 (1:1000, 9661, Cell Signaling Technology, MA, USA), and PARP (1:1000, 9542L, Cell Signaling Technology), and GAPDH (1:1000, SC-32233, Santa Cruz Biotechnology). Secondary antibodies used: goat anti rabbit IgG and goat anti-mouse IgG, 1:5000; Santa Cruz Biotechnology, Santa Cruz, CA).
To determine whether the increase in cell viability following treatment with WO3i was caused by a suppression of apoptotic cell death, levels of cleaved caspase-3 and cleaved PARP were assessed by Western blotting. […] However, upon severe ER stress, caspase 3 undergoes proteolytic cleavage to form the active enzyme, which in turns cleaves PARP, to trigger apoptotic cell death.

[3] = tested on: IRE1α activation (Xbp1-s mRNA); assay: qRT-PCR of spliced Xbp1 mRNA (Tm-induced IRE1α activation) in INS-1 cells; conditions: compound 5 μM, Tm 0.5 μg/ml, 4 h and 8 h, normalized to cyclophilin A, listed as WO3i
Protocol: Spliced Xbp1 (Xbp1-s) mRNA levels by qRT-PCR in INS-1 cells treated for 4 h (A) and 8 h (B) with WO3i at 5 μM in the presence or absence of Tm (0.5 μg/ml). Data are presented as the fold change after normalized to cyclophilin A mRNA.
as §1, §2

INS-1 β cells [4] = assay: Live-cell phase-contrast images of INS-1 cells under ER stress; conditions: Tm 0.5 μg/mL, compound 5 μM, 24 h, phase-contrast/bright field
Protocol: INS-1 cells were treated with or without Tm (0.5 μg/mL) in the presence of WO3i (5 μM) or DMSO (0.1%) for 24 h, and live-cell phase-contrast images were acquired (magnification 10×).

CHOP mRNA = assay: qRT-PCR of Tm-induced CHOP mRNA expression in INS-1 cells; conditions: compound 5 μM, Tm 0.5 μg/ml, 4 h and 8 h, normalized to cyclophilin A, listed as WO3i
Protocol: CHOP mRNA levels by qRT-PCR in INS-1 cells treated for 4 h (A) and 8 h (B) with WO3i at 5 μM in the presence or absence of Tm (0.5 μg/ml). Data are presented as the fold change after normalized to cyclophilin A mRNA.
as §1, §2

[5] = tested on: ATF6 activation (BiP mRNA); assay: qRT-PCR of BiP mRNA (Tm-induced ATF6 activation) in INS-1 cells; conditions: compound 5 μM, Tm 0.5 μg/ml, 4 h and 8 h, normalized to cyclophilin A, listed as WO3i
Protocol: BiP mRNA levels by qRT-PCR in INS-1 cells treated for 4 h (A) and 8 h (B) with WO3i at 5 μM in the presence or absence of Tm (0.5 μg/ml). Data are presented as the fold change after normalized to cyclophilin A mRNA.
as §1, §2

Which results are given for `O=C(NCc1ccc(C(F)(F)F)cc1)c1cccc(O)c1` [Compound 3i, 3-Hydroxy-N-(4-(trifluoromethyl)benzyl)benzamide]?
Tm-induced ATF4 mRNA level (PERK activation) [1]: abolished; also recorded: suppresses; Emax (INS-1 cells; % rescue from Tm (0.15 μg/mL)-induced reduction of INS-1 cell viability (intracellular ATP), Tm alone 0%, DMSO without Tm 100%, 72 h, read-out: Maximum % of Protection): 100%; pEC50 (INS-1 cells; INS-1 cell viability, Tm 0.15 μg/mL, ten 2-fold serial titration points, GraphPad Prism): 6.72; Tm-induced apoptosis: cleavage of caspase-3 and PARP (INS-1 β cells [2]): suppresses; Tm-induced apoptosis: cleavage of caspase-3 and PARP (INS-1 β cells [2]; listed as WO3): almost completely abolished; Tm-induced apoptosis: cleavage of caspase-3 and PARP (INS-1 β cells [2]; listed as WO3M): suppresses; Tm-induced apoptosis: cleavage of caspase-3 and PARP (INS-1 β cells [2]; listed as WO3i): suppresses; Tm-induced spliced Xbp1 (Xbp1-s) mRNA level (IRE1α activation) [3]: eliminated; also recorded: suppresses; Preservation of INS-1 β cell viability under ER stress (images) (INS-1 β cells [4]; listed as WO3M): significantly more cells were preserved; Preservation of INS-1 β cell viability under ER stress (images) (INS-1 β cells [4]; listed as WO3i): preserves the INS-1 β cell viability; Tm-induced CHOP mRNA expression (CHOP mRNA): markedly diminished; also recorded: suppresses; Tm-induced BiP mRNA level (ATF6 activation) [5]: completely suppressed; also recorded: suppresses
